≈ marks a conversion by molar mass, not a printed value.

This is an account of results in patent US4311699A, “Aminoacid derivatives of cephalosporin compounds” (priority 1980, dated 1982).

Holding throughout (assay): in vitro antibacterial activity, minimal inhibitory concentration
Holding throughout (format): cell-based

In one test the test system is Pseudomonas BRK 12-4-4. As to conditions: BRK1244; Pseudomonas BRK 12-4-4, in vitro. An excerpt:
(§1) The compounds of the invention are new chemical compounds that are used as pharmacological agents and especially as broad spectrum antibacterial agents. They are active in vitro against strains of both gram-positive and gram-negative bacteria.
(§2) Minimal Inhibitory Concentration (μg/ml)

Another test deals with Klebs. pneu.
From the text: as §1, §2

Another test deals with E. coli Brig. As to conditions: Escherichia coli.
From the text: as §1, §2

The next test concerns Pseudomonas UI 18. The note with it: UI18; Pseudomonas UI 18, in vitro.
From the text: as §1, §2

A further test concerns Serr. marces.
From the text: as §1, §2

The next test concerns Prot. vulg.
From the text: as §1, §2

For the next test, the system named is Strep. fec.
From the text: as §1, §2

The subject of the next test is E. coli Vogel. The note with it: Escherichia coli.
From the text: as §1, §2

In a further test the test system is Staph. aureus S18733. As to conditions: Staphylococcus aureus.
From the text: as §1, §2

The next test relates to Entero. cloacae. As to conditions: Enterobacter cloacae.
From the text: as §1, §2

The test system of another test is Staph. aureus UC-76. As to conditions: Staphylococcus aureus, UC76; Staph. aureus UC-76, in vitro.
From the text: as §1, §2

Another test relates to Pseudomonas #28. As to conditions: Pseudomonas #28, in vitro; read-out: Minimal Inhibitory Concentration.
From the text: as §1, §2

As for `CC(=O)NC(C)C(=O)Nc1ccc(-c2ncc(C(=O)N[C@@H](C(=O)N[C@@H]3C(=O)N4C(C(=O)O)=C(COC(N)=O)CS[C@H]34)c3ccccc3)c(O)n2)cc1` (mixture of isomers) [Example 20, N-[2-[4-(N-Acetyl-DL-alanylamino)phenyl]-4-hydroxy-5-pyrimidinylcarbonyl]-7-[D-2-amino-2-phenylacetamido]-3-carbamoyloxymethyl-3-cephem-4-carboxylic acid], the MIC was 12.5 µg/mL against Pseudomonas BRK 12-4-4; 25 µg/mL in the test on Klebs. pneu.; 50 µg/mL in the test with E. coli Brig; 6.3 µg/mL against Pseudomonas UI 18; > 50 µg/mL in the test on Serr. marces.; 25 µg/mL against Prot. vulg.. Besides, the MIC in the test on Strep. fec. was > 50 µg/mL; with E. coli Vogel, 12.5 µg/mL; against Staph. aureus S18733, 3.1 µg/mL; in the test on Entero. cloacae, > 50 µg/mL; in the test with Staph. aureus UC-76, 1.6 µg/mL; in the test with Pseudomonas #28, 6.3 µg/mL.

In the case of `CC(=O)N[C@H](C)C(=O)Nc1ccc(-c2ncc(C(=O)N[C@@H](C(=O)N[C@@H]3C(=O)N4C(C(=O)O)=C(COC(C)=O)CS[C@H]34)c3ccc(O)cc3)c(O)n2)cc1` [Example 11, N-[2-[4-(N-Acetyl-D-alanylamino)phenyl]-4-hydroxy-5-pyrimidinylcarbonyl]-7-[D-2-amino-2-(4-hydroxyphenyl)-acetamido]-3-acetoxymethyl-3-cephem-4-carboxylic acid], the MIC is 6.3 µg/mL (≈ 8.43 µM) against Pseudomonas BRK 12-4-4; 25 µg/mL (≈ 33.4 µM) in the test with Klebs. pneu.; 50 µg/mL (≈ 66.9 µM) in the test with E. coli Brig; 6.3 µg/mL (≈ 8.43 µM) in the test on Pseudomonas UI 18; > 50 µg/mL in the test on Serr. marces.; 12.5 µg/mL (≈ 16.7 µM) against Prot. vulg.. Also, the MIC is 50 µg/mL (≈ 66.9 µM) in the test with Strep. fec.; 6.3 µg/mL (≈ 8.43 µM) in the test with E. coli Vogel; 25 µg/mL (≈ 33.4 µM) against Staph. aureus S18733; 50 µg/mL (≈ 66.9 µM) in the test with Entero. cloacae; 6.3 µg/mL (≈ 8.43 µM) in the test on Staph. aureus UC-76; 3.1 µg/mL (≈ 4.15 µM) in the test on Pseudomonas #28.

Turning to `CC(=O)N[C@H](C)C(=O)Nc1ccc(-c2ncc(C(=O)N[C@@H](C(=O)NC3C(=O)N4C(C(=O)O)=C(CSc5nnnn5CC(=O)O)CSC34)c3ccc(O)cc3)c(O)n2)cc1` (stereo partly drawn) [Example 37, N-[2-[4-(N-Acetyl-D-alanylamino)phenyl]-4-hydroxy-5-pyrimidinylcarbonyl)-7-[D-2amino-2-(4-hydroxyphenyl)acetamido]-3-[[(1-carboxymethyl-1H-tetrazol-5-yl)thio]methyl]-3-cephem-4-carboxylic acid], the MIC with Pseudomonas BRK 12-4-4 is 12.5 µg/mL (≈ 14.7 µM); with Klebs. pneu. it was 12.5 µg/mL (≈ 14.7 µM); in the test with E. coli Brig it was 12.5 µg/mL (≈ 14.7 µM); against Pseudomonas UI 18, 6.3 µg/mL (≈ 7.43 µM); against Serr. marces., > 50 µg/mL; in the test on Prot. vulg., 1.6 µg/mL (≈ 1.89 µM). The MIC is > 50 µg/mL in the test on Strep. fec.; 3.1 µg/mL (≈ 3.66 µM) against E. coli Vogel; 25 µg/mL (≈ 29.5 µM) in the test with Staph. aureus S18733; 12.5 µg/mL (≈ 14.7 µM) against Entero. cloacae; 25 µg/mL (≈ 29.5 µM) in the test with Staph. aureus UC-76; 12.5 µg/mL (≈ 14.7 µM) with Pseudomonas #28.
